Laboratory results from ChEMBL document CHEMBL1201862, “PubChem BioAssay data set” (2004).
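1) Cells in 96-well plates. 2) Compound, 48 h, 5 concentrations. 3) Linear interpolation between surrounding doses. 4) Unreached endpoint = highest concentration. GI50: concentration for 50% inhibition of growth.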 Active and inactive are the calls of the source. Cut-off read from the data, not from the text of the source: active = GI50 up to about 1.1 µM and inactive = higher.

Experiments:
Assay in all cases: NCI tumour cell line growth inhibition, 48 h
HOP-62 = test system: HOP-62
HCC 2998 = test system: HCC 2998
SR = test system: SR
SF-539 = test system: SF-539
HCT-116 = test system: HCT-116
SNB-75 = test system: SNB-75
SW-620 = test system: SW-620
RPMI-8226 = test system: RPMI-8226
M19-MEL = test system: M19-MEL
SK-MEL-5 = test system: SK-MEL-5
COLO 205 = test system: COLO 205
NCI-H23 = test system: NCI-H23
SNB-78 = test system: SNB-78
U-251 = test system: U-251
A498 = test system: A498
SK-OV-3 = test system: SK-OV-3
MOLT-4 = test system: MOLT-4
786-0 = test system: 786-0
XF498 = test system: XF498
NCI-H522 = test system: NCI-H522
SK-MEL-28 = test system: SK-MEL-28
LOX IMVI = test system: LOX IMVI
SNB-19 = test system: SNB-19
TK-10 = test system: TK-10
Malme-3M = test system: Malme-3M
OVCAR-4 = test system: OVCAR-4
HCT-15 = test system: HCT-15
UO-31 = test system: UO-31
LXFL 529 = test system: LXFL 529
M14 = test system: M14
DMS-114 = test system: DMS-114
ACHN = test system: ACHN
OVCAR-5 = test system: OVCAR-5
IGROV-1 = test system: IGROV-1
SF-268 = test system: SF-268
OVCAR-8 = test system: OVCAR-8
HL-60 = test system: HL-60
DLD-1 = test system: DLD-1
CAKI-1 = test system: CAKI-1
UACC-62 = test system: UACC-62
NCI-H460 = test system: NCI-H460
K562 = test system: K562
KM-20L2 = test system: KM-20L2
SK-MEL-2 = test system: SK-MEL-2
DMS-273 = test system: DMS-273
KM12 = test system: KM12
CCRF-CEM = test system: CCRF-CEM
EKVX = test system: EKVX
UACC-257 = test system: UACC-257
A549 = test system: A549
SN12C = test system: SN12C
OVCAR-3 = test system: OVCAR-3
HOP-18 = test system: HOP-18
NCI-H226 = test system: NCI-H226
HT-29 = test system: HT-29
SF-295 = test system: SF-295
HOP-92 = test system: HOP-92

`CCOC(=O)c1ccn2c(c1)c(C#N)c1nc3ccccc3nc12` was tested, and the GI50 (HOP-62) was > 100 µM (inactive), the GI50 (HCC 2998) was 53.1 µM (inactive) and the GI50 (SR) was 32.6 µM (inactive). For the same molecule, the GI50 (SF-539) was > 100 µM (inactive), the GI50 (HCT-116) was 46.8 µM (inactive) and the GI50 (SNB-75) was 13.3 µM (inactive). For the same molecule, the GI50 (SW-620) was 50 µM (inactive), the GI50 (RPMI-8226) was 43.6 µM (inactive) and the GI50 (M19-MEL) was 61.8 µM (inactive). For the same molecule, the GI50 (SK-MEL-5) was 35.6 µM (inactive), the GI50 (COLO 205) was 48.2 µM (inactive) and the GI50 (NCI-H23) was 37.2 µM (inactive). The GI50 (SNB-78) was 15.5 µM (inactive), the GI50 (U-251) was 76.7 µM (inactive) and the GI50 (A498) was 85.5 µM (inactive). For the same molecule, the GI50 (SK-OV-3) was 55.1 µM (inactive), the GI50 (MOLT-4) was 18.1 µM (inactive) and the GI50 (786-0) was > 100 µM (inactive). The GI50 (XF498) was 33.7 µM (inactive), the GI50 (NCI-H522) was 45.3 µM (inactive) and the GI50 (SK-MEL-28) was > 100 µM (inactive). The GI50 (LOX IMVI) was 29.2 µM (inactive), the GI50 (SNB-19) was 61 µM (inactive) and the GI50 (TK-10) was 75.9 µM (inactive). For the same molecule, the GI50 (Malme-3M) was 76 µM (inactive), the GI50 (OVCAR-4) was 91 µM (inactive) and the GI50 (HCT-15) was 41.6 µM. The GI50 (UO-31) was 42.4 µM (inactive), the GI50 (LXFL 529) was 31.6 µM (inactive) and the GI50 (M14) was > 100 µM (inactive). The GI50 (DMS-114) was 52.2 µM (inactive), the GI50 (ACHN) was 55.5 µM (inactive) and the GI50 (OVCAR-5) was > 100 µM (inactive). The GI50 (IGROV-1) was 5.4 µM (inactive), the GI50 (SF-268) was > 100 µM (inactive) and the GI50 (OVCAR-8) was 32.1 µM (inactive). For the same molecule, the GI50 (HL-60) was 38.8 µM (inactive), the GI50 (DLD-1) was 27.4 µM (inactive) and the GI50 (CAKI-1) was 54.5 µM (inactive). The GI50 (UACC-62) was 0.908 µM (active), the GI50 (NCI-H460) was 28.6 µM (inactive) and the GI50 (K562) was 33.9 µM (inactive). The GI50 (KM-20L2) was 71.9 µM (inactive), the GI50 (SK-MEL-2) was > 100 µM (inactive) and the GI50 (DMS-273) was 37.2 µM (inactive). For the same molecule, the GI50 (KM12) was 51.6 µM (inactive), the GI50 (CCRF-CEM) was 18.5 µM (inactive) and the GI50 (EKVX) was 70.6 µM (inactive). For the same molecule, the GI50 (UACC-257) was > 100 µM (inactive), the GI50 (A549) was 50.1 µM (inactive) and the GI50 (SN12C) was 83.8 µM (inactive). The GI50 (OVCAR-3) was > 100 µM (inactive).
In the case of `O=c1c2cc(O)ccc2n2nnc3ccc(NCCNCCO)c1c32`, the GI50 (SF-539) is reported as 4.56 µM (inactive), the GI50 (HCT-116) is reported as 4.62 µM (inactive) and the GI50 (HOP-18) is reported as 26.9 µM (inactive). For the same molecule, the GI50 (RPMI-8226) was 17.1 µM (inactive), the GI50 (COLO 205) was 5.33 µM (inactive) and the GI50 (NCI-H23) was 11.7 µM (inactive). For the same molecule, the GI50 (U-251) was 1.27 µM (inactive), the GI50 (SK-OV-3) was 5.08 µM (inactive) and the GI50 (786-0) was 4.86 µM (inactive). The GI50 (XF498) was 1.71 µM (inactive), the GI50 (LOX IMVI) was 3.23 µM (inactive) and the GI50 (SNB-19) was 4.09 µM (inactive). The GI50 (OVCAR-4) was 5.09 µM (inactive), the GI50 (HCT-15) was 77.8 µM and the GI50 (UO-31) was 26.9 µM (inactive). The GI50 (NCI-H226) was 2.6 µM (inactive), the GI50 (LXFL 529) was 3.2 µM (inactive) and the GI50 (HT-29) was 8.77 µM (inactive). For the same molecule, the GI50 (DMS-114) was 2.28 µM (inactive), the GI50 (SF-268) was 1.39 µM (inactive) and the GI50 (OVCAR-8) was 3.53 µM (inactive). The GI50 (CAKI-1) was 5.68 µM (inactive), the GI50 (DMS-273) was 9.18 µM (inactive) and the GI50 (KM12) was 20.2 µM (inactive). For the same molecule, the GI50 (SF-295) was 15.2 µM (inactive), the GI50 (EKVX) was 26.2 µM (inactive) and the GI50 (HOP-92) was 3.49 µM (inactive).
